Assays:
Format in all cases: cell-based
HepG2 = assay: in vitro effectiveness of anticancer agents on CHC cell line HepG2
SNU-398 = assay: in vitro effectiveness of anticancer agents on CHC cell line SNU-398; details: SNU-398 CHC cell line
SNU-449 = assay: in vitro effectiveness of anticancer agents on CHC cell line SNU-449; details: SNU-449 CHC cell line

Measured: effectiveness among the anticancer agents in vitro

CC(=O)[C@]1(O)Cc2c(O)c3c(c(O)c2[C@@H](O[C@H]2C[C@H](N)[C@H](O)[C@H](C)O2)C1)C(=O)c1ccccc1C3=O [Idarubicin]
most effective: all assays above

Reference: US10064883B2, “Lipiodol-based anti-tumour emulsion for treating cancer” (CHU DE DIJON, priority 2012, dated 2018)
